Where a SMILES comes first, the peptide text is derived from it. Bridges are numbered along the chain shown (N, C = ends).
Legend:
human whole blood = assay: Cytokine release by human whole blood incubated with live Kp-1705; format: cell-based; conditions: human whole blood 1:10 in RPMI-1640, 1000 CFU/ml Kp-1705, 4 h, 37 °C, ELISA
Protocol: Log-phase […] grown in TSB were pelleted, washed twice in PBS, and suspended to 1 × 10^5 CFU/ml in RPMI-1640. EDTA-anticoagulated blood collected from a healthy adult human donor was incubated at a final dilution of 1:10 in RPMI-1640 with 1000 CFU/ml of Kp-1705 and varied concentrations of MTD12813 for 4 h 37 °C in 5% CO2 with gentle rocking. Incubation supernatants were frozen at − 80 °C. TNF and IL-6 were quantified by ELISA (Invitrogen KHC3011, KHC0061).

plasma cytokines = assay: Plasma multiplex cytokine analysis in Kp-1705 sepsis; format: in vivo, BALB/c mice; conditions: 1.25 mg/kg i.p. 1 h p.i.
Protocol: (§1) EDTA-anticoagulated blood was collected aseptically by terminal cardiac puncture and analyzed for complete blood cell count using an Element HT5 hematology analyzer (Heska). Blood plasma and clarified peritoneal lavage were prepared by two-step centrifugation described previously. Plasma cytokine levels were quantified using a mouse-specific MILLIPLEX MAP kit (Millipore Cat# MCYTMAG-70K) as described.
Supplemental Table 1. Mice were challenged i.p. with Kp-1705 and treated 1 h later with MTD12813 (1.25 mg/kg i.p.) or saline. The sham cohort received bacteria-free suspension buffer at t=0 followed by saline 1 h later. Mice were euthanized 2, 4, or 24 h p.i., and plasma samples were subjected to multiplex cytokine analysis. P values calculated using ANOVA with Uncorrected Fisher’s LSD comparing saline and MTD12813 treated mice at respective time points.

[1] = Peptide stability in human EDTA plasma; format: in vitro ADME; conditions: 90% (vol/vol) human EDTA-plasma, 37 °C, C18 RP-UPLC with PDA detector, read-out: peptide remaining intact
Protocol: MTD12813 (final concentration of 100 µg/ml) was added to either 90% human EDTA plasma or 90% human serum and incubated at 37 °C for 48 h. Samples were processed by addition of 10% HOAc and 5% ACN (final concentrations) at time 0 and 48 h, and MTD12813 was quantified by C18 RP-HLPC on an Acquity H-Class UPLC with an analytical PDA detector using Empower 3 software (Waters). All samples were performed with technical replicates and analyzed by UPLC in duplicate and the experiment repeated once. […] A time 0 h sample was collected, and the remaining suspension incubated at 37 °C for 24 h. Samples were processed by addition of 5% formic acid/5% acetonitrile, vortexed, and clarified at 22,000×g for 10 min. Supernatant MTD12813 was then quantified by LC–MS/MS as described in PK section above. All samples were performed with technical replicates and analyzed by LC–MS/MS in duplicate.

[2] = Stability in aqueous media; format: physicochemical; conditions: including acidic solutions as low as pH 2.0; preliminary, data not shown
RAW 264.7 macrophages = assay: Phagocytosis assay, RAW 264.7 macrophages with live Kp-1705; format: cell-based, mouse; conditions: RAW 264.7 cells, live Kp-1705, MOI 50:1, 0–10 µg/ml peptide, 30 min, 37 °C
Protocol: Mouse RAW 264.7 macrophages (RAW cells; ATCC, TIB-71) were grown in Dulbecco’s Modified Eagle Medium (DMEM) with 10% heat-inactivated fetal bovine serum (HI-FBS) with 100 U/ml penicillin/streptomycin, and suspended to 2–3 × 10^6 cells/ml in fresh media before use.
Kp-1705 was grown overnight, harvested by centrifugation, washed twice, resuspended in Hank’s Balanced Salt Solution (HBSS), and adjusted to a density of 2.5 × 10^8 CFU/ml. Bacteria were pre-incubated with varied concentrations of MTD12813 at room temperature for 30 min, and incubated (MOI 50:1) with RAW cells (2.5 × 10^6 cell/ml) with orbital shaking at 37 °C for 30 min. Cytospin preparations of 100 µl (2.5 × 10^5 RAW cells/slide) samples were then prepared, fixed with methanol, and stained with hematoxylin and eosin (H & E). Slides were viewed at 100× and 50 RAW cells selected from random fields were manually counted for number of cell associated bacteria. All samples were run in duplicate and experiments performed twice.

neutrophils = assay: Neutrophil recruitment (peritoneal lavage and blood); format: in vivo, BALB/c mice
Protocol: Blood, peritoneal lavage fluid, and spleen homogenates were obtained from mice following by CO2 euthanasia. Citrate-anti-coagulated blood was collected by aseptic cardiac puncture. Peritoneal lavage was performed by injecting 3 ml of PBS into the peritoneal cavity, massaging the abdomen, and then collecting fluid aseptically through a minor incision in the abdominal wall. Spleen was surgically removed and homogenized in sterile PBS using Polytron PT10-35 homogenizer. Samples were serially diluted and plated in triplicate on TSA plates, incubated overnight at 37 °C and colonies counted.
as §1

E. coli BAA-2340 = assay: CRE E. coli BAA-2340 septicemia, survival; format: in vivo, BALB/c mice; conditions: KPC+ E. coli BAA-2340 i.p., saline controls 10%
Protocol: BALB/c mice (Jackson Laboratories) 8–10 weeks of age were acclimated (3–5 to a cage for at least 5 days prior to infection) in a thermostatically controlled room with 12 h light/dark cycle. Cryopreserved K. pneumoniae cells were thawed and adjusted to a density of 6–10 × 10^8 CFU/ml, confirmed by plating on trypticase soy agar (TSA) plates. E. coli BAA-2340 was grown to log-phase in trypticase soy broth, pelleted, washed with PBS, and resuspended in PBS at 0.5–1 × 10^9 CFU/ml. Mice were infected by i.p. injection of 2–5 × 10^8 CFU of Kp-1705 or 3–6 × 10^7 CFU of E. coli BAA-2340 using a 28 g needle in a volume of 0.5 ml. Post-infection, mice were observed three times a day for at least 4 days and then daily for 28 days. Mice were euthanized when they became moribund. All experiments used both male and female mice and were repeated at least twice.

CC[C@H](C)[C@@H]1NC(=O)[C@@H]2CSSC[C@H](NC(=O)[C@H]([C@@H](C)CC)NC(=O)[C@@H]3CSSC[C@H](NC1=O)C(=O)N[C@@H](C(C)C)C(=O)NCC(=O)N[C@@H](CCCNC(=N)N)C(=O)NCC(=O)N3)C(=O)N[C@@H](C(C)C)C(=O)N[C@@H](CCCNC(=N)N)C(=O)N[C@@H](CCCNC(=N)N)C(=O)N[C@@H](CCCNC(=N)N)C(=O)N2 [MTD12813] (cyclo(CICVGRGCICVRRR); disulfide 1-10, 3-8)
release of TNF and IL-6 (human whole blood): concentration-dependently suppressed | plasma CCL4 and CXCL2 (plasma cytokines; 2 h p.i.): statistically significant reductions | plasma IL-9 and IL-15 levels (plasma cytokines; 4 h p.i.): significant increases | plasma TNF, IL-6 and CXCL1 (KC) (plasma cytokines; 4 h p.i.): significantly reduced | change of plasma TNF versus saline (plasma cytokines; 24 h p.i.): -89.8% | remaining at 48 h, 100 µg/ml [1]: > 95% | stability in aqueous media [2]: exceedingly stable | concentration of maximal phagocytic activity (RAW 264.7 macrophages): 0.313 µg/mL | PLF neutrophils versus saline (neutrophils; Kp-1705 infected mice, 1.25 mg/kg i.p. 1 h p.i., 24 h, P = 0.0048): threefold increase | blood neutrophils (neutrophils; Kp-1705 infected mice, 1.25 mg/kg i.p. 1 h p.i., peak at ca. 2 h p.i.): transient peripheral blood neutrophilia | PLF neutrophil numbers in sham-infected mice (neutrophils; sham-infected mice, 24 h after peptide delivery): no increase in neutrophil numbers | survival ≥ 28 days (E. coli BAA-2340; single i.p. injection 1.25 mg/kg 1 h p.i.): 100% | survival ≥ 28 days (E. coli BAA-2340; single i.p. injection 5 mg/kg 1 h p.i.): 100%
